These results are taken from ChEMBL document CHEMBL1201862, “PubChem BioAssay data set” (2004).

The target in assay [1] is Benomyl/methotrexate resistance protein (Candida albicans, UniProt P28873). Briefly: Candida albicans Mdr1 pump inhibition curves – singleplex, Cherry Pick1 hits, dose response (AID 588608). The format is functional.
The target of assay [2] is Multidrug resistance protein CDR1 (Candida albicans, UniProt P43071). Kind of assay: Candida albicans Cdr1 pump inhibition curves – singleplex, Cherry Pick2 set, dose response (AID 623996). The format is functional. Particulars: read-out: EC50_MICROM.

Active and inactive are the calls of the source.

Chain of Multidrug resistance protein CDR1 (P43071 whole entry, looked up): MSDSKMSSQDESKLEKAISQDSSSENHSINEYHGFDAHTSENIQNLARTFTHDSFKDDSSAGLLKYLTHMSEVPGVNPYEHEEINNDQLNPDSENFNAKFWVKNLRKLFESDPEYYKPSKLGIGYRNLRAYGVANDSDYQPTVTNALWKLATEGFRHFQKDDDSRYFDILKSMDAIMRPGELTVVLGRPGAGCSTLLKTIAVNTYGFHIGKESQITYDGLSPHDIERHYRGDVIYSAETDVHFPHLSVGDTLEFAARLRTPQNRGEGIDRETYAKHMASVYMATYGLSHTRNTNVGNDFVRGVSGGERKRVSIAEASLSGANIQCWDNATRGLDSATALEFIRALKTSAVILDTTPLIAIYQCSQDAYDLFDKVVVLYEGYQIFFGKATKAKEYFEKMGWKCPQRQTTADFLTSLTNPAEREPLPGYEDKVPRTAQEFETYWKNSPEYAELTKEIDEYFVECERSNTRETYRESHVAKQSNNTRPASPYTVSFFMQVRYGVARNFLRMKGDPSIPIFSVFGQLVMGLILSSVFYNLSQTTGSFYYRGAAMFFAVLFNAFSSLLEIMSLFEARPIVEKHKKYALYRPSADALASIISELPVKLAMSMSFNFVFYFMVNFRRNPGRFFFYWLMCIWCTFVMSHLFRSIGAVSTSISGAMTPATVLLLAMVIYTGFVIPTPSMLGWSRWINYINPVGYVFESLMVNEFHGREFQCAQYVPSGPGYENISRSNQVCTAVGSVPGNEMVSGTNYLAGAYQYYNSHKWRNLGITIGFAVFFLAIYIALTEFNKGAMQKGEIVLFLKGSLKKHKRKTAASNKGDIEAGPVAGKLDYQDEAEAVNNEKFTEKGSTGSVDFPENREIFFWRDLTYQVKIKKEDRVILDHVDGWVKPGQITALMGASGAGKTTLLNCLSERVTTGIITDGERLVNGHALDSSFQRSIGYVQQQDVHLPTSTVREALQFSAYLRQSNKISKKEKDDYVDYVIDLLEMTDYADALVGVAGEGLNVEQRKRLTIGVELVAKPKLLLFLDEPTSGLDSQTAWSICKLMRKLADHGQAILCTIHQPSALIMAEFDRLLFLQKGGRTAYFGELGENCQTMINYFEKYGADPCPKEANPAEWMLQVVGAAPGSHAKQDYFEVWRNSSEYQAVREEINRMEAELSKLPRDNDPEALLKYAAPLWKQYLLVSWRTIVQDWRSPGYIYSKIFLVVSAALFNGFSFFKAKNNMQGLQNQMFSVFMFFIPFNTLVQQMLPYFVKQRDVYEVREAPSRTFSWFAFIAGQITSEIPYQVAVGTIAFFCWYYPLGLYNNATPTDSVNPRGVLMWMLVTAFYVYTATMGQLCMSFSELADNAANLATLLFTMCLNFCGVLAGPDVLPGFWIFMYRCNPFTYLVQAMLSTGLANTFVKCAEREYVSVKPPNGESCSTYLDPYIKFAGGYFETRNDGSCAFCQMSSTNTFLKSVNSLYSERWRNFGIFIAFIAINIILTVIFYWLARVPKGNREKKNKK
Chain of Benomyl/methotrexate resistance protein (P28873 whole entry): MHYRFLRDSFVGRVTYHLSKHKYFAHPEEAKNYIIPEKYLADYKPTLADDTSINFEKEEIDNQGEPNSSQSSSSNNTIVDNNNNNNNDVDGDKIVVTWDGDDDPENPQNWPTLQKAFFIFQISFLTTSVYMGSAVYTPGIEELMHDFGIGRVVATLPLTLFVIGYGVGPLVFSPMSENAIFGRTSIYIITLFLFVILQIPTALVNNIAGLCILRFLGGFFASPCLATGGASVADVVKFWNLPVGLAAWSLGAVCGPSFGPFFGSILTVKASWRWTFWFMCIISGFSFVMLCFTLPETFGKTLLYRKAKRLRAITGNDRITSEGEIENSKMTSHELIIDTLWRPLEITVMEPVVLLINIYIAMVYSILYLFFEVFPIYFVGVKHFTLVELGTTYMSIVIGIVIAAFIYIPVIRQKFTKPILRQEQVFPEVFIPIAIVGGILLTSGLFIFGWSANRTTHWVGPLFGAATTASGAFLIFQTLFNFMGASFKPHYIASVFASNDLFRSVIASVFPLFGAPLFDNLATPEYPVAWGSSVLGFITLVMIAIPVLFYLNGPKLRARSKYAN

Turning to `CC(C)C(=O)N1CCC2(CC1)Oc1ccc(F)cc1C(=O)C21CC(c2ccccc2)=NO1` (configuration not stated), the EC50 is 12.5 µM (active) in assay [1] and 23.9 µM (active) in assay [2].
